Test results as given in paper PMC6642116, “Structural and functional analyses of hepatitis B virus X protein BH3-like domain and Bcl-xL interaction” (Nature Communications, 2019).

Columns and labels:
[1] = system: DDB1; format: binding; conditions: biotin-conjugated peptides, HepG2 lysate; peer review file, removed from final paper
Procedure: (§1) affect the level of the Smc6 proteins in HepG2 cell. a, Coprecipitation experiments were performed with HepG2 cell lysate that was incubated with biotinylated HBx-aa113-135 peptides (WT) and mutant peptides with the W120A/L123A mutations, respectively. The pulldown proteins were analyzed by immunoblotting (IB) using an anti-DDB1 antibody (Abcam, ab109027). b-c, HBx-aa113-135 peptides (wild-type and the W120A/L123A double mutant peptides) were delivered into HepG2 cells using PEP-1 nanoparticles, respectively. […]

[2] = target: T1, Bcl-xL (Homo sapiens, UniProt Q07817, DEL27-82); assay: Isothermal titration calorimetry of peptides with Bcl-xL; format: binding; conditions: ITC, 25 °C; Bcl-xL 10 μM in 25 mM Tris-HCl (pH 8.0); peptide 800 μM
T1 construct: 6xHis-SUMO (N, cleaved yes); made in house; host or cells: Escherichia coli BL21(DE3)
T1 sequence (Q07817 with tags, fused parts or gaps DEL27-82 limits assumed): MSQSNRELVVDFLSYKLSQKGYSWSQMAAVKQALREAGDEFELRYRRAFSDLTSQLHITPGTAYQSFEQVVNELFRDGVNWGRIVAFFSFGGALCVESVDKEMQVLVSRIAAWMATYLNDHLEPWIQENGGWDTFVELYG
Excerpt: The codon-optimized DNAs encoding Bcl-xLΔTM (the flexible loop, residues 27–82, and the transmembrane domain, residues, 197–233, are deleted, total […], named as Bcl-xL thereafter) was ordered from Genewiz (www.genewiz.com). The recombinant Bcl-xL with N-terminal SUMO-fused 6× His tag was generated by the insertion of the PCR products into pETSUMO vector (Invitrogen; www.thermofisher.com) and verified by sequencing. Recombinant proteins were expressed in Escherichia coli (BL21/DE3) strain overnight at 20 °C and proteins were induced by 0.4 mM isopropyl β-D-thiogalactoside. Cells were harvested by centrifugation and the pellets were re-suspended and passed through a cell disruptor (www.avestin.com) three times. After ultracentrifugation at 40,000 rpm for 1 h, the supernatant for His-tagged recombinant proteins were purified through Ni^2+ affinity column, cleaved by Ulp-1, followed by HiLoad Superdex S-75 26/60 column (GE Healthcare). The purified proteins were dialyzed against stabilization buffer containing 20 mM Tris-HCl (pH 7.0) and 100 mM NaCl and concentrated to 10–15 mg/ml in a Centriprep-30 (Amicon) for subsequent crystallization and biochemical analysis.
Microcalorimetry was used for all measurements. Bcl-xL protein was prepared at a final concentration of 10 μM in a buffer containing 25 mM Tris-HCl (pH 8.0). The ABT-263 was dissolved in the same buffer to a final concentration of 500 μM, while the peptides were dissolved to a final concentration of 800 μM. All experiments were carried out at 25 °C. Data were analyzed using the software Origin (OriginLab).

[3] = system: HBV replication from pHBV1.3-Xnull replicon in HepG2 cells; assay: HBV production rescue assay, PEP-1 delivered peptides; format: cell-based; conditions: HepG2 + pHBV1.3-Xnull; for HBcAg in cells / HBeAg in culture medium / HBsAg in culture medium / Secreted HBV DNA: peptide/PEP-1, 48 h; for HBV viral protein production and HBV DNA replication (in words): peptide/PEP-1 nanoparticles, 48 h
Excerpt: Fig. 3 The HBx-BH3-like domain is critical for HBV production in HepG2 cells. a–e C-terminal biotinylated HBx-aa113–135 peptides (both wild-type (WT) and the W120A/L123A double mutant) were delivered into HepG2 cells transfected with pHBV1.3-Xnull using PEP-1 nanoparticles (Methods) and analyzed by streptavidin-FITC (fluorescein isothiocyanate) for transfection efficiency (a). Scale bar is 50 μm. An unrelated 23-aa peptide was used as a control (Control). The intracellular expression levels of HBV core antigen (HBcAg (b) and the levels of HBV e-antigen (HBeAg) (c), HBV S-antigen (HBsAg) (d), and HBV DNA (e) in the culture medium collected from HepG2 cells were measured (Methods). The results are shown as fold change to the WT HBx-aa113–135 peptide (WT). f–i) HepG2 cells were co-transfected with pHBV1.3-Xnull and pTT22m-HBx-WT (WT), pHBV1.3-Xnull and pTT22m-HBx(W120A/L123A), or pHBV1.3-Xnull and the pTT22m vector control (Control). Intracellular expression levels of HBcAg (f) and the levels of HBeAg (g), HBsAg (h), and HBV DNA (i) in the culture medium from HepG2 cells were measured similarly. The results are shown as fold change to the combination of pHBV1.3-Xnull and pTT22m-HBx-WT (WT). Data shown represent mean ± SD. Significance is indicated on the top. **P < 0.01, ***P < 0.001, ****P < 0.0001; two-tailed unpaired t tests (n = 3 biologically independent samples). Source data are provided as a Source Data file
HepG2 cells were grown in Dulbecco’s modified Eagle’s medium (DMEM) with 10% Gibco fetal bovine serum. C-terminal biotinylated-labeled HBx peptides were transfected into HepG2 cells by pep-1[16], a peptide carrier for the delivery of biologically active proteins into mammalian cells. HBx peptides and pep-1 were firstly dissolved in DMEM to 1 mg/ml, then adjusted to 500 µl DMEM to a final concentration of 100 µg/ml, and incubated at 37 °C for 30 min in the tube. The incubated peptide mixture was added into pre-seeded HepG2 cells in a 24-well plate and incubated for another 30 min, and then washed five times by phosphate-buffered saline (PBS) to remove the free peptides. The transfected C-terminal biotinylated HBx peptides were detected by using streptavidin-FITC (fluorescein isothiocyanate) equipment (Thermo Fisher Scientific) following the standard immunostaining methods.
Transfection of plasmids into HepG2 cells was carried out using X-tremeGENE HP DNA Transfection Reagent (Roche), following the manufacturer’s protocol. A transfection efficiency of 20–30% could be achieved. Cells were pre-seeded 24 h before transfections. pHBV1.3-HBx-null plasmid was transfected into HepG2 cells for 6 h, then HBx-aa113–135, HBx-aa113–135-(W120A, L123A), or control peptide was transfected by pep-1 carrier and incubated for additional 48 h without the removal of peptides. The culture media of the HepG2 cells were harvest for analysis.
The levels of HBsAg, HBeAg, and HBcAg expression were measured by chemiluminescence, using Commercial Assay Kit (Wantai, Beijing, China). Northern blot analysis of HBV RNA, Southern blot analysis of HBV DNA, and real-time PCR quantification of HBV DNA are described in the Supplementary Methods.

[4] = system: endogenous Bcl-xL protein in HepG2 cell lysate; assay: Co-precipitation of endogenous Bcl-xL from HepG2 cell lysate by biotinylated HBx peptides; format: binding, human; conditions: biotinylated peptide, streptavidin beads, immunoblot
Procedure: Fig. 2 HBx binds endogenous Bcl-xL through the BH3-like domain. a HBx-aa113–135 interacts with Bcl-xL in HepG2 cell lysate. Co-precipitation experiments were performed in the HepG2 cell lysate using biotinylated HBx-aa113–135 peptides (wild type (WT)) and corresponding mutant peptides (W120A/L123A), respectively. The results were analyzed by immunoblotting (IB) using anti-Bcl-xL antibody. β-Tubulin was measured and analyzed as an input control. b Full-length HBx interacts with Bcl-xL in HepG2 cells. Co-immunoprecipitation (co-IP) experiments were performed in HepG2 cells transfected with pTT22m-HBx-WT or pTT22m-HBx(W120A/L123A).
HepG2 cells were lysed in lysis buffer [100 mM NaCl, 0.5 mM MgCl2, 0.15 mM CaCl2, 1% (v/v) Nonidet P-40, 10 mM Tris-HCl, pH 8.0] containing protease inhibitor mixture tablets (Roche). Cell lysate was centrifuged at 12,000 × g for 10 min at 4 °C to removed debris and precleared with magnetic beads conjugated with streptavidin (Dynabeads® M-280 Streptavidin, Invitrogen). Subsequently, the precleared supernatant was incubated with C-terminal biotinylated peptides for 1 h with gentle shaking at 4 °C. […] The beads were washed five times with the lysis buffer and the bound proteins were resolved on a 13.5% sodium dodecyl sulfate-polyacrylamide gel and detected by anti-Bcl-xL antibody (Cell Signaling Technology).

[5] = system: SMC6; format: cell-based; conditions: HepG2, 48 h, PEP-1 delivery; peer review file, removed from final paper
Procedure: as §1
Smc6 protein expression. Nuclei were stained with DAPI (Invitrogen, D1306). The fluorescence was detected by Opera Phenix High Content Screening System (PerkinElmer) and the mean green fluorescence intensity of cells was quantified by Opera Phenix High Content Screening System. The data shown are mean ± SD. Significant differences between groups are indicated on the top. ns, no significant difference; two-tailed unpaired t-tests.

| Substance | pull-down of DDB1 by peptide [1] | dissociation constant [2] | HBcAg in cells ([3]; replicate 1) | HBeAg in culture medium ([3]; replicate 1) | HBsAg in culture medium ([3]; replicate 1) | Secreted HBV DNA ([3]; replicate 1) [Copies/mL] | HBcAg in cells ([3]; replicate 2) | HBeAg in culture medium ([3]; replicate 2) | HBsAg in culture medium ([3]; replicate 2) | Secreted HBV DNA ([3]; replicate 2) [Copies/mL] | HBcAg in cells ([3]; replicate 3) | HBeAg in culture medium ([3]; replicate 3) | HBsAg in culture medium ([3]; replicate 3) | Secreted HBV DNA ([3]; replicate 3) [Copies/mL] | HBV viral protein production and HBV DNA replication (in words) [3] | co-precipitation of Bcl-xL [4] | level of SMC6 protein, compared with control peptide [5] |
| --- | --- | --- | --- | --- | --- | --- | --- | --- | --- | --- | --- | --- | --- | --- | --- | --- | --- |
| KDCVFKDAEEAGEEIRLKVFVLG-K-biotin [HBx-aa113–135(W120A/L123A)] | could not be pulled down | not detectable | 0.546 fold-change to WT | 0.448 fold-change to WT | 0.379 fold-change to WT | 1584000 | 0.465 fold-change to WT | 0.393 fold-change to WT | 0.356 fold-change to WT | 1498000 | 0.491 fold-change to WT | 0.405 fold-change to WT | 0.352 fold-change to WT | 1278000 | failed to do so | much less Bcl-xL was co-precipitated | comparable |
| KDCVFKDWEELGEEIRLKVFVLG-K-biotin [HBx-aa113–135-biotin, C-terminal biotinylated wild-type HBx-aa113–135; delivered with PEP-1 nanoparticles in cells] | could not be pulled down |  | 1.057 fold-change to WT | 0.919 fold-change to WT | 0.971 fold-change to WT | 3830000 | 0.952 fold-change to WT | 1.090 fold-change to WT | 1.038 fold-change to WT | 2973000 | 0.991 fold-change to WT | 0.990 fold-change to WT | 0.991 fold-change to WT | 4056000 | significantly increased both HBV viral protein production and HBV DNA replication | Bcl-xL was co-precipitated | comparable |
